Laboratory results from US11291200B2, “Application of viable cell monitor to cryopreservation of plant cells” (EAST CHINA UNIVERSITY OF SCIENCE AND TECHNOLOGY, priority 2016, dated 2022).

How the values were obtained:
[1] = system: suspension cells from Siraitia grosvenorii; experiment: Cell viability evaluation by viable cell monitor (viable cell capacitance, viability preservation rate after cryopreservation); type: cell-based; details: for A1 (viable cell capacitance of the pre-treated cell): before freezing; for A3 (basal capacitance of the cell): cell death totally; for A2 (viable cell capacitance after resuscitation) / Viability preservation rate: -80° C. 24 h
Experimental: Taking a certain number of cells in the logarithmic growth phase for centrifugation (or sedimentation) and adding an equal amount of pre-treatment fluids after removing the supernatant. […] Pre-treated cells are centrifuged. Adding cryoprotectants after removing the supernatant and incubating at 0-4° C. and 110 rpm for 45 min. After incubation, the cells are first cooled at −20° C. for 40 min and then cooled in the −80° C. cryogenic refrigerator. Frozen cells are thawed in a water bath at 39° C., for 2-3 min. […] Mixing evenly the suspension cells and then measuring the capacitance of viable cells with a viable cell monitor. The viable cell capacitance of the pre-treated cell is denoted as A1; the viable cell capacitance after resuscitation is denoted as A2; and the basal capacitance of the cell is denoted as A3 (capacitance when cell death totally). […] The basic capacitance of cells: the cell suspension is boiled in boiling water for 1 h, and then subjected to ultrasonication for 40 min. The capacitance measured is the basic capacitance.

[2] = system: suspension cells from Siraitia grosvenorii; experiment: Measurement of mitochondrial activity (TTC) after cryopreservation; type: cell-based; details: for TTC value score: per-level statistic of Table 1; for TTC value/100 mg of cells: -80° C. 24 h
Experimental: After mixing evenly, performing dark culture at 25° C. for 16 h. After the dark culture, the supernatant is removed by centrifugation and the cells are washed with distilled water three times. Adding with 4 mL of methanol and placing in a 60° C. water bath for 50 min, gently blow twice with a pipette tip until the cells have detached to colourless.

[3] = Siraitia grosvenorii, 45 min, 5 %
[4] = Siraitia grosvenorii, 45 min, 10 %
[5] = 0.2 M sucrose as pre-treatment agent, cryoprotectant liquid medium+10% DMSO+10% sucrose, compared with the control without pre-treatment
[6] = 0.2 M sucrose pre-treatment time 1 h
[7] = 0.2 M sucrose pre-treatment time 1 h, liquid medium+10% DMSO+10% sucrose
[8] = 0.2 M sucrose pre-treatment time 2 h
[9] = 0.2 M sucrose pre-treatment time 2 h, liquid medium+10% DMSO+10% sucrose
[10] = 0.2 M sucrose pre-treatment time 5 h
[11] = 0.2 M sucrose pre-treatment time 5 h, liquid medium+10% DMSO+10% sucrose
[12] = 0.2 M sucrose pre-treatment time 9 h
[13] = 0.2 M sucrose pre-treatment time 9 h, liquid medium+10% DMSO+10% sucrose
[14] = 0.2 M sucrose pre-treatment time 22 h
[15] = 0.2 M sucrose pre-treatment time 22 h, liquid medium+10% DMSO+10% sucrose
[16] = 0.2 M sucrose pre-treatment time 46 h
[17] = 0.2 M sucrose pre-treatment time 46 h, liquid medium+10% DMSO+10% sucrose
[18] = pre-treatment agent 0.2M, frozen medium liquid medium+10% DMSO+10% sucrose
[19] = pre-treatment agent 0.35M, frozen medium liquid medium+10% DMSO+10% sucrose
[20] = pre-treatment agent 0.5M, frozen medium liquid medium+10% DMSO+10% sucrose

## C[S+](C)[O-] [DMSO, dimethyl sulfoxide]
[1]; [3]
  Viability preservation rate score: 35.90%
[1]; [4]
  Viability preservation rate score: 37.09%
[2]; cryoprotectant level 5%
  TTC value score: 0.633
[2]; cryoprotectant level 10%
  TTC value score: 0.792

## OC[C@H]1O[C@@](CO)(O[C@H]2O[C@H](CO)[C@@H](O)[C@H](O)[C@H]2O)[C@@H](O)[C@@H]1O [Sucrose, sucrose]
[1]; [5]
  increase of cell viability preservation rate: 29.18%
[1]; [6]
  A1 (viable cell capacitance of the pre-treated cell): 62.11 pF/cm
  A3 (basal capacitance of the cell): 8.41 pF/cm
[1]; [7]
  A2 (viable cell capacitance after resuscitation): 14.46 pF/cm
[1]; [8]
  A1 (viable cell capacitance of the pre-treated cell): 61.68 pF/cm
  A3 (basal capacitance of the cell): 8.78 pF/cm
[1]; [9]
  A2 (viable cell capacitance after resuscitation): 15.63 pF/cm
[1]; [10]
  A1 (viable cell capacitance of the pre-treated cell): 61.19 pF/cm
  A3 (basal capacitance of the cell): 11.09 pF/cm
[1]; [11]
  A2 (viable cell capacitance after resuscitation): 21.21 pF/cm
[1]; [12]
  A1 (viable cell capacitance of the pre-treated cell): 58.51 pF/cm
  A3 (basal capacitance of the cell): 11.3 pF/cm
[1]; [13]
  A2 (viable cell capacitance after resuscitation): 25.85 pF/cm
[1]; [14]
  A1 (viable cell capacitance of the pre-treated cell): 56.48 pF/cm
  A3 (basal capacitance of the cell): 10.43 pF/cm
[1]; [15]
  A2 (viable cell capacitance after resuscitation): 22.86 pF/cm
[1]; [16]
  A1 (viable cell capacitance of the pre-treated cell): 45.92 pF/cm
  A3 (basal capacitance of the cell): 10.94 pF/cm
[1]; [17]
  A2 (viable cell capacitance after resuscitation): 14.60 pF/cm
[1]; [3]
  Viability preservation rate score: 31.15%
[1]; [4]
  Viability preservation rate score: 42.98%
[1]; pre-treatment agent 0.2M
  A1 (viable cell capacitance of the pre-treated cell): 42.25 pF/cm
  A3 (basal capacitance of the cell): 10.00 pF/cm
[1]; [18]
  A2 (viable cell capacitance after resuscitation): 26.44 pF/cm
[1]; pre-treatment agent 0.35M
  A1 (viable cell capacitance of the pre-treated cell): 30.55 pF/cm
  A3 (basal capacitance of the cell): 8.49 pF/cm
[1]; [19]
  A2 (viable cell capacitance after resuscitation): 17.01 pF/cm
[1]; pre-treatment agent 0.5M
  A1 (viable cell capacitance of the pre-treated cell): 24.62 pF/cm
  A3 (basal capacitance of the cell): 6.03 pF/cm
[1]; [20]
  A2 (viable cell capacitance after resuscitation): 11.81 pF/cm
[2]; [5]
  increase of mitochondrial activity (TTC value): 36.72%
[2]; [7]
  TTC value/100 mg of cells: 0.195
[2]; [9]
  TTC value/100 mg of cells: 0.201
[2]; [11]
  TTC value/100 mg of cells: 0.225
[2]; [13]
  TTC value/100 mg of cells: 0.376
[2]; [15]
  TTC value/100 mg of cells: 0.319
[2]; [17]
  TTC value/100 mg of cells: 0.106
[2]; cryoprotectant level 5%
  TTC value score: 0.506
[2]; cryoprotectant level 10%
  TTC value score: 0.847
[2]; [18]
  TTC value/100 mg of cells: 0.916
[2]; [19]
  TTC value/100 mg of cells: 0.479
[2]; [20]
  TTC value/100 mg of cells: 0.232

## OC[C@H]1O[C@H](O[C@H]2O[C@H](CO)[C@@H](O)[C@H](O)[C@H]2O)[C@H](O)[C@@H](O)[C@@H]1O [Trehalose, trehalose]
[1]; pre-treatment agent 0.2M
  A1 (viable cell capacitance of the pre-treated cell): 41.05 pF/cm
  A3 (basal capacitance of the cell): 7.77 pF/cm
[1]; [18]
  A2 (viable cell capacitance after resuscitation): 23.40 pF/cm
  Viability preservation rate: 46.97%
[1]; pre-treatment agent 0.35M
  A1 (viable cell capacitance of the pre-treated cell): 34.06 pF/cm
  A3 (basal capacitance of the cell): 7.09 pF/cm
[1]; [19]
  A2 (viable cell capacitance after resuscitation): 18.80 pF/cm
  Viability preservation rate: 43.42%
[1]; pre-treatment agent 0.5M
  A1 (viable cell capacitance of the pre-treated cell): 21.20 pF/cm
  A3 (basal capacitance of the cell): 5.50 pF/cm
[1]; [20]
  A2 (viable cell capacitance after resuscitation): 10.65 pF/cm
  Viability preservation rate: 32.80%
[2]; [18]
  TTC value/100 mg of cells: 0.767
[2]; [19]
  TTC value/100 mg of cells: 0.841
[2]; [20]
  TTC value/100 mg of cells: 0.224

## OC[C@@H](O)[C@@H](O)[C@H](O)[C@@H](O)CO [sorbitol]
[1]; cryoprotectant level 5%, per-level statistic of Table 1
  Viability preservation rate score: 31.20%
[1]; cryoprotectant level 10%, per-level statistic of Table 1
  Viability preservation rate score: 40.65%
[2]; cryoprotectant level 5%
  TTC value score: 0.652
[2]; cryoprotectant level 10%
  TTC value score: 0.846
